From publication PMC9995496, “A screen for MeCP2-TBL1 interaction inhibitors using a luminescence-based assay” (Scientific Reports, 2023)
Where a name gives a salt, the structure may show the parent alone. Peptide text beside a SMILES is read from it. * marks the point of attachment. Cbz = O=C(OCc1ccccc1)*; CH2F = FC*

Tested on: PRKACA-PRKAR2A interaction (SmBiT-PRKACA / LgBiT-PRKAR2A), protein kinase A
Parameters: NanoLuc complementation counter-screen in cell extract, PRKACA with PRKAR2A, loss of luminescence, detects NanoLuc interference
Conditions: 0.5 h, 20 µM; inhibitor

With `COc1cc2cc(c1Cl)N(C)C(=O)C[C@H](OC(=O)C(C)C)[C@]1(C)O[C@@H]1[C@H](C)[C@@H]1C[C@@](O)(NC(=O)O1)[C@H](OC)/C=C/C=C(\C)C2` [UM0141517:01, Ansamitocin P-3] the “Inh (PKA)” value was 6.121%.

Same assay, conditions: counter-screen for NanoLuc interference, 0.5 h, 20 µM, inhibitor, Inh (PKA)

Going from `C[S+]([O-])c1ccc(-c2nc(-c3ccc(F)cc3)c(-c3ccncc3)[nH]2)cc1` (stereo not shown) [UM0127917:04, SB 203580] to `CN1CCN(c2ccc3nc(-c4c(N)c5c(F)cccc5[nH]c4=O)[nH]c3c2)CC1` [UM0141446:01, Dovitinib (TKI-258, CHIR-258)], the “Inh (PKA)” value falls from 16.51% to 5.935%.

Compared with `CCCC(CCC)C(=O)O` [UM0142234:01, Divalproex Sodium], `CCC(CC)[C@H](NC(C)=O)[C@@H]1[C@H](O)[C@@H](C(=O)O)C[C@H]1NC(=N)N` [UM0141600:01, Peramivir] is higher in “Inh (PKA)” value: 2.043% for the first, 2.459% for the second.

In the case of `CCOC(=O)[C@@H](N)CCC(=O)N[C@@H](CSCc1ccccc1)C(=O)N[C@@H](C(=O)OCC)c1ccccc1` [UM0142188:01, Ezatiostat hydrochloride], the “Inh (PKA)” value is reported as 1.044%.

Same assay, conditions: counter-screen for NanoLuc interference; 0.5 h, 20 µM; inhibitor

First: COC(=O)C[C@H](NC(=O)[C@H](C)NC(=O)[C@@H](NC(=O)OCc1ccccc1)C(C)C)C(=O)CF [UM0141421:01, Z-VAD-FMK] (Cbz-Val-Ala-Asp(OMe)-CH2F)
Second: COC(=O)CC[C@H](NC(=O)[C@H](CC(=O)OC)NC(=O)OCc1ccccc1)C(=O)N[C@H](C(=O)N[C@@H](CC(=O)OC)C(=O)CF)C(C)C [UM0141427:01, Z-DEVD-FMK]
The “Inh (PKA)” value of the first is higher: 1.417% for the first, 1.254% for the second.

Compared with `COc1cc(-c2ncn(/C=C\C(=O)OC(C)C)n2)cc(C(F)(F)F)c1` [UM0142266:01, KPT-185], `CCN(CC)CCCCNc1ncc2cc(-c3cc(OC)cc(OC)c3)c(NC(=O)NC(C)(C)C)nc2n1` [UM0131000:03, PD 173074] is lower in “Inh (PKA)” value: 22.3% for the first, 0.205% for the second.

Compared with `C[C@@H]1CC(=O)Nc2cccc(-c3ccc4c(c3)c(-c3cnn(C)c3)nn4C)c2N1` [UM0142803:01, CPI-637], `O=C1Cc2c([nH]c3ccc(Br)cc23)-c2ccccc2N1` [UM0119194:04, Kenpaullone] is higher in “Inh (PKA)” value: 3.742% for the first, 40.47% for the second.

First: Cc1ccc(-c2ncc(Cl)cc2-c2ccc(S(C)(=O)=O)cc2)cn1 [UM0141550:01, Etoricoxib]
Second: CCCS(=O)(=O)Nc1ccc(F)c(C(=O)c2c[nH]c3ncc(-c4ccc(Cl)cc4)cc23)c1F [UM0128310:03, Vemurafenib (PLX4032, RG7204)]
The “Inh (PKA)” value of the first is lower: 2.792% for the first, 34.51% for the second.

Compared with `N=C1CCCN1Cc1[nH]c(=O)[nH]c(=O)c1Cl` [UM0141639:01, Tipiracil hydrochloride], `CC1COC2(CCN(c3nc(=O)c4cc(C(F)(F)F)cc([N+](=O)[O-])c4s3)CC2)O1` (racemic) [UM0141871:01, BTZ043 Racemate] is higher in “Inh (PKA)” value: 0.165% for the first, 1.801% for the second.

Compared with `Oc1ccc(-c2nc(-c3ccc(F)cc3)c(-c3ccncc3)[nH]2)cc1` [UM0141406:01, SB202190 (FHPI)], `O=C1[C@H](CC[C@H](O)c2ccc(F)cc2)[C@@H](c2ccc(O)cc2)N1c1ccc(F)cc1` [UM0142039:01, Ezetimibe] is lower in “Inh (PKA)” value: 40.66% for the first, 29.66% for the second.

Compared with `O=C(NCc1ccccc1)c1csc(Nc2ccncn2)n1` [UM0141894:01, Thiazovivin], `N#C/C(=C\c1ccc(O)c(O)c1)C(=O)NCc1ccccc1` [UM0127932:03, AG-490] is higher in “Inh (PKA)” value: -0.9736% for the first, 36.26% for the second.

Compared with `O=C(O[C@@H]1Cc2c(O)cc(O)cc2O[C@@H]1c1cc(O)c(O)c(O)c1)c1cc(O)c(O)c(O)c1` [UM0119174:03, (-)-Epigallocatechin gallate (EGCG)], `COC(=O)c1ccc([C@@H]2c3[nH]c4ccccc4c3C[C@@H](C(=O)OC)N2C(=O)CCl)cc1` [UM0142735:01, RSL3] is higher in “Inh (PKA)” value: 17.48% for the first, 22.95% for the second.

First: Cn1ncnc1[C@H]1c2n[nH]c(=O)c3cc(F)cc(c23)N[C@@H]1c1ccc(F)cc1 [UM0141735:01, BMN 673]
Second: COc1nccc(-c2c(-c3ccc(F)cc3)ncn2[C@H]2CC[C@H](O)CC2)n1 [UM0141625:01, SB 239063]
The “Inh (PKA)” value of the first is lower: 5.771% for the first, 17.29% for the second.

First: CCCCCCCN(CC)CCCC(O)c1ccc(NS(C)(=O)=O)cc1 (stereo not shown) [UM0142470:01, Ibutilide Fumarate]
Second: COc1ccc(CCCOC(Cn2ccnc2)c2ccc(OC)cc2)cc1 (stereo not shown) [UM0142776:01, SKF 96365 hydrochloride]
The “Inh (PKA)” value of the first is lower: 0.4733% for the first, 35.58% for the second.

First: COc1cc([C@@H]2c3cc4c(cc3[C@@H](O[C@@H]3O[C@@H]5CO[C@@H](C)O[C@H]5[C@H](O)[C@H]3O)[C@H]3COC(=O)[C@H]23)OCO4)cc(OC)c1O [UM0141437:01, Etoposide]
Second: COc1cc2ncnc(Nc3cccc(Cl)c3F)c2cc1OC(=O)N1CCN(C)C[C@H]1C [UM0142700:01, AZD3759]
The “Inh (PKA)” value of the first is lower: 1.839% for the first, 7.884% for the second.

First: CC(C)(C)c1cc(C(C)(C)C)c(NC(=O)c2c[nH]c3ccccc3c2=O)cc1O [UM0141863:01, Ivacaftor (VX-770)]
Second: COc1cc(-n2c(=S)[nH]c3ccccc3c2=O)c(Cl)cc1Cl [UM0141840:01, Mdivi 1]
The “Inh (PKA)” value of the first is lower: 12.69% for the first, 54.95% for the second.

Compared with `CC(NC(=O)[C@H](Cc1ccccc1)NC(=O)OCc1ccccc1)C(=O)CF` (stereo partly shown) [UM0141928:01, Z-FA-FMK], `O=C(O)CCc1nc(-c2ccccc2)c(-c2ccccc2)o1` [UM0056108:04, Oxaprozin] is higher in “Inh (PKA)” value: 4.07% for the first, 7.48% for the second.

First: CN(C[C@@H]1COCCO1)S(=O)(=O)Nc1ccc2ccc3ncc(-c4cnn(C)c4)cc3c(=O)c2c1 [UM0142058:01, MK-2461]
Second: C[C@@H]1CCNC(=O)c2cc3ccc(C(=O)Nc4nc5ccccc5n4CCCN(C)C)cc3n21 [UM0142196:01, BIX 02565]
The “Inh (PKA)” value of the first is lower: 13.67% for the first, 22.65% for the second.

Compared with `CSc1cccc(Nc2ncc3cc(-c4c(Cl)cccc4Cl)c(=O)n(C)c3n2)c1` [UM0142139:01, PD173955], `C[C@H](Nc1ncnc2nc[nH]c12)c1cc2cccc(Cl)c2c(=O)n1-c1ccccc1` [UM0141412:01, IPI-145 (INK1197)] is lower in “Inh (PKA)” value: 37.99% for the first, 8.901% for the second.

Going from `C[C@@]1(F)[C@H](O)[C@@H](CO)O[C@H]1n1ccc(=O)[nH]c1=O` [UM0141938:01, PSI-6206] to `Cc1ccc([C@@H]2O[C@H](CO)[C@@H](O)[C@H](O)[C@H]2O)cc1Cc1ccc(-c2ccc(F)cc2)s1` [UM0141997:01, Canagliflozin], the “Inh (PKA)” value rises from 1.416% to 13.33%.

Compared with `CC[C@H](C)n1cc(C)c2c(C(=O)NCc3c(C)cc(C)[nH]c3=O)cc(-c3ccc(N4CCNCC4)nc3)cc21` [UM0141557:01, GSK126], `Cc1cc(C)c(CNC(=O)c2cc(-c3ccc(CN4CCOCC4)cc3)cc3c2cnn3C2CCCC2)c(=O)[nH]1` [UM0141746:01, EPZ005687] is higher in “Inh (PKA)” value: 5.02% for the first, 11.88% for the second.

First: CCOc1cc(N)c(Cl)cc1C(=O)NCC1CN(Cc2ccc(F)cc2)CCO1 (stereo not shown) [UM0141391:01, Mosapride Citrate]
Second: CNC(=O)c1ccccc1Nc1nc(Nc2ccc(N3CCOCC3)cc2OC)ncc1Cl [UM0142088:01, TAE226 (NVP-TAE226)]
The “Inh (PKA)” value of the first is lower: 13.81% for the first, 15.32% for the second.

First: NS(=O)(=O)c1nn2cc(-c3ccccc3)nc2s1 [UM0142826:01, AEG 3482]
Second: O=C1c2ccccc2C(=O)c2oc(-c3ccccc3)nc21 [UM0141630:01, SJB2-043]
The “Inh (PKA)” value of the first is higher: 8.076% for the first, 4.073% for the second.

First: COc1cccc(CCc2ccccc2OCC(CN(C)C)OC(=O)CCC(=O)O)c1 (stereo not shown) [UM0142521:01, Sarpogrelate hydrochloride]
Second: CCOC(=O)CCNc1cc(N2CCc3ccccc3CC2)nc(-c2ccccn2)n1 [UM0141754:01, GSK J4 HCl]
The “Inh (PKA)” value of the first is lower: 4.065% for the first, 11.33% for the second.

Going from `CC(C)=CCCC(C)(O)C1CCC2(C)C1C(O)CC1C3(C)CCC(O)C(C)(C)C3CCC12C` (stereo not shown) [UM0142847:01, Protopanaxdiol] to `CC1(C)[C@@H](OC(=O)CCC(=O)O)CC[C@]2(C)[C@H]3C(=O)C=C4[C@@H]5C[C@@](C)(C(=O)O)CC[C@]5(C)CC[C@@]4(C)[C@]3(C)CC[C@@H]12` [UM0134288:02, Carbenoxolone disodium], the “Inh (PKA)” value rises from 2.916% to 9.677%.

First: BrC1C(Br)C(Br)C(Br)C(Br)C1Br (stereo not shown) [UM0141851:01, 1,2,3,4,5,6-Hexabromocyclohexane]
Second: C[C@H]1O[C@@H](O[C@H]2[C@@H](O)C[C@H](O[C@H]3[C@@H](O)C[C@H](O[C@H]4CC[C@@]5(C)[C@H](CC[C@@H]6[C@@H]5C[C@@H](O)[C@]5(C)[C@@H](C7=CC(=O)OC7)CC[C@]65O)C4)O[C@@H]3C)O[C@@H]2C)C[C@H](O)[C@@H]1O [UM0134205:02, Digoxin]
The “Inh (PKA)” value of the first is higher: 6.156% for the first, -2.961% for the second.

Going from `O=C(O)C1=C(CSc2nnnn2CS(=O)(=O)O)CS[C@@H]2[C@H](NC(=O)[C@H](O)c3ccccc3)C(=O)N12` [UM0142832:01, Cefonicid (sodium salt)] to `Cc1c(OCC(F)(F)F)ccnc1C[S@@+]([O-])c1nc2ccccc2[nH]1` [UM0118982:04, Dexlansoprazole], the “Inh (PKA)” value rises from 2.197% to 2.726%.

Compared with `COc1cc(N2CCC(N3CCN(C)CC3)CC2)ccc1Nc1ncc(Cl)c(Nc2ccccc2S(=O)(=O)C(C)C)n1` [UM0141971:01, TAE684 (NVP-TAE684)], `c1ccc(-c2nn3c(c2-c2ccnc4cc(OCCN5CCOCC5)ccc24)CCC3)nc1` [UM0142054:01, LY2109761] is lower in “Inh (PKA)” value: 23% for the first, -0.08675% for the second.

Compared with `N#Cc1ccc2[nH]cc(CCCCN3CCN(c4ccc5oc(C(N)=O)cc5c4)CC3)c2c1` [UM0141561:04, Vilazodone Hydrochloride], `CC(C)(C)C(=O)OCOP(=O)(COCCn1cnc2c(N)ncnc21)OCOC(=O)C(C)(C)C` [UM0142452:01, Adefovir Dipivoxil] is lower in “Inh (PKA)” value: 10.91% for the first, -0.7793% for the second.

Compared with `S=c1[nH]cnc2nc[nH]c12` [UM0135507:02, Mercaptopurine (6-MP)], `CO[C@H]1C[C@@H]2CC[C@@H](C)[C@@](O)(O2)C(=O)C(=O)N2CCCC[C@H]2C(=O)O[C@H]([C@H](C)C[C@@H]2CC[C@@H](OC(=O)C(C)(CO)CO)[C@H](OC)C2)CC(=O)[C@H](C)/C=C(\C)[C@@H](O)[C@@H](OC)C(=O)[C@H](C)C[C@H](C)/C=C/C=C/C=C/1C` [UM0135484:03, Temsirolimus] is lower in “Inh (PKA)” value: 1.981% for the first, 1.626% for the second.
